Counter-ions that a name gives are not always drawn.
What was measured:
dopamine D2 receptors = dopamine D2 receptors (Bos taurus, UniProt P20288); assay: Radioligand binding to dopamine D2 receptors ([3H]-Spiperone, bovine caudate nuclei); settings: for Ki / D2 (pK1): bovine caudate nuclei, [3H]-Spiperone, 75 minutes at room temperature, 30 nM ketanserin, two-site fitted model; for Ki: read-out: D2 (pK1) (converted)
Protocol: (§1) Radioligand Binding Experiments (Dopamine Receptor Affinity Information; pK1 values):
(§2) Bovine brains were obtained fresh from a local slaughterhouse. The caudate nuclei were dissected out and homogenized in Buffer A (50 mM Tris; 1 mM Na2 -EDTA; 5 mM KCl; 1 mM MgCl2; 2 mM CaCl2; pH 7.4) using a Brinkmann Polytron. The homogenate was centrifuged at 40,000×g for 20 minutes and washed once. The pellet was resuspended in Buffer A, incubated at 37° C. for 15 minutes, then centrifuged. The pellet was washed once more, resuspended to a protein concentration of 5-10 mg/ml in Buffer A and frozen at -70° C. until used.
(§3) To test binding of the compounds to dopamine receptors, the following tritiated drugs were used as radioligands for each of the receptors tested: [^3 H]-Spiperone 21-24 Ci/mmol for D2 receptors and [^3 H]-SCH23390 75-85 Ci/mmol for D1 receptors. The radioligands were incubated with various concentrations of competing drug and bovine membranes for the following times: 75 minutes at room temperature for D2 receptors, and 15 minutes at 37° C. for D1 receptors. Specific binding was defined using 1 μM butaclamol (D2) and 1 μM SCH 23390 (D1). In addition, the D2 assays contained 30 nM ketanserin in order to block the binding of [^3 H]-spiperone to 5-HT2 receptors.
(§4) The assays were terminated by filtration using a 24-port Brandell cell harvester over filters that had been previously soaked in 0.1% polyethyleneimine, and the filters were washed three times by filtration of cold buffer. The filters were then placed in 5 ml scintillation vials to which 4 ml of Beckman Ready-Protein was then added, and each vial was counted for 2 minutes in a Beckman 3801 scintillation counter calibrated for conversion of cpm to dpm. Binding data were analyzed using the Ligand program of Munson and Rodbard (1980). The results are presented as pK1 values in a two-site fitted model.
as §2, with “To test binding to dopamine receptors, the bovine caudate nuclei assay was employed. Bovine” for “Bovine”, “mMMgCl2;” for “mM MgCl2;”, “Brinkman” for “Brinkmann”
(§5) The following tritiated drugs were used as radioligands for each of the receptors tested: [^3 H]-Spiperone 21-24 Ci/mmol for D2 receptors and [^3 H]-SCH23390 75-85 Ci/mmol for D1 receptors. The radioligands were incubated with various concentrations of competing drug and the appropriate membrane source for periods of time as follows: 75 minutes at room temperature for D2 receptors or 15 minutes at 37° C. for D1 receptors. Specific binding was defined using 1 μM butaclamol (D2) or 1 μM SCH23390 (D1). In addition, the D2 assays contained 30nM ketaserin in order to block the binding of ^3 H-spiperone to 5HT2 receptors.
as §4, with “as Ki” for “as pK1”, “values if the data were best fitted to a one-site model, or as Kh and K1 values if” for “values in”, “two-site model produced the better fit.” for “two-site fitted model.”

dopamine D1 receptors = dopamine D1 receptors (Bos taurus, UniProt Q95136); assay: Radioligand binding to dopamine D1 receptors ([3H]-SCH23390, bovine caudate nuclei); settings: 15 minutes at 37° C., two-site fitted model; for Ki: read-out: D1 (pK1) (converted)
Protocol: as §1, §2, §3, §4
as §2, with “To test binding to dopamine receptors, the bovine caudate nuclei assay was employed. Bovine” for “Bovine”, “mMMgCl2;” for “mM MgCl2;”, “Brinkman” for “Brinkmann”
as §5
as §4, with “as Ki” for “as pK1”, “values if the data were best fitted to a one-site model, or as Kh and K1 values if” for “values in”, “two-site model produced the better fit.” for “two-site fitted model.”

dopamine D2 = settings: reference compound, in words; cited from earlier work
dopamine receptor = settings: prior art, in words; cited from earlier work

dopamine D2 receptors, sequence (P20288 whole entry): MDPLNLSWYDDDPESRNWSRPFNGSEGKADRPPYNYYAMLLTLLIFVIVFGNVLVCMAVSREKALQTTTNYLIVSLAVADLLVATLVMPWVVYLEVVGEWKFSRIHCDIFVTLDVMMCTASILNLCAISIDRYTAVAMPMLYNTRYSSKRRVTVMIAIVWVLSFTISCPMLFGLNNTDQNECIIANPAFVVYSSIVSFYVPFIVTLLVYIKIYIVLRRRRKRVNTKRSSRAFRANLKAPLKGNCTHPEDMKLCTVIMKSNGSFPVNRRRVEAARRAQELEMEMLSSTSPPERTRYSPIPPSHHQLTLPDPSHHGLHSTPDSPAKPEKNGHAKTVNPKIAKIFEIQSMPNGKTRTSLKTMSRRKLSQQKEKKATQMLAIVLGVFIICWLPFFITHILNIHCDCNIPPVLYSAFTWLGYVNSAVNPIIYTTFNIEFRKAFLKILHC
dopamine D1 receptors, sequence (Q95136 whole entry): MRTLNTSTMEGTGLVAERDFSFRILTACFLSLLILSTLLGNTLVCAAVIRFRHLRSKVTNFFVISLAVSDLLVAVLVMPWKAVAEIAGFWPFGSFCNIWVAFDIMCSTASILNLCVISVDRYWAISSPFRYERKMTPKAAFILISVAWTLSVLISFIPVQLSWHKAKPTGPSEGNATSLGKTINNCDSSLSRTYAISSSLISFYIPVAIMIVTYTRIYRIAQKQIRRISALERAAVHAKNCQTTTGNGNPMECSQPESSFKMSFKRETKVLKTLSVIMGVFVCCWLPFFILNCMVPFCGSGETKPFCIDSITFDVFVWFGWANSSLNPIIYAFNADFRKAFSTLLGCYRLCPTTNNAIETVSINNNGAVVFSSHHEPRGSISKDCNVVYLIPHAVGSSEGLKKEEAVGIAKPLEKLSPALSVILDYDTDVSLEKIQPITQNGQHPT

| Ki (dopamine D2 receptors) [nM] | Ki (dopamine D1 receptors) [nM] | Compound | further results |
| --- | --- | --- | --- |
| 123 | 1230 | CCCN(CC[C@@H]1OC(=O)c2ccccc21)[C@H]1CCc2c(O)cccc2C1 [Example 37, (S,S)-3-[2-[propyl(1,2,3,4-tetrahydro-5-hydroxy-2-naphthalenyl)amino]ethyl]-1(3H)-isobenzofuranone] | – |
| – | – | CCCN(CC[C@H]1OC(=O)c2ccccc21)[C@H]1CCc2c(O)cccc2C1 [Example 36, (S,R)-3-[2-[propyl(1,2,3,4-tetrahydro-5-hydroxy-2-naphthalenyl)amino]ethyl]-l(3H)-isobenzofuranone] | D2 (pK1) (dopamine D2 receptors): 6.85; D1 (pK1) (dopamine D1 receptors): 6.56 |
| – | – | CCCN(CCC1OCc2ccccc21)C1CCc2c(O)cccc2C1 (stereo not shown) [Example 46, 6-[[2-(1,3-dihydro-1-isobenzofuranyl)-ethyl]propylamino]-5,6,7,8-tetrahydro-1-naphthalenol] | D2 (pK1) (dopamine D2 receptors): 6.77; D1 (pK1) (dopamine D1 receptors): 5.14 |
| 66.1 | 2140 | CCCN(CCC1OC(=O)c2ccccc21)C1CCc2c(O)cccc2C1 (stereo not shown) [Example 9, 3-[2-[propyl(1,2,3,4-tetrahydro-5-hydroxy-2-naphthalenyl)amino]ethyl]-l(3H)-isobenzofuranone] | – |
| 2630 | 4170 | CCCN(CCOc1ccc2ccccc2c1)C1CCc2c(O)cccc2C1 (stereo not shown) [Example 32, 5,6,7,8-tetrahydro-6-[(2-(2-naphthalenyloxy)ethyl]propylamino]-1-naphthalenol] | – |
| 126 | 12000 | CCCN(CCOc1ccccc1)C1CCc2c(O)cccc2C1 (stereo not shown) [Example 2, 2-[N-n-propyl,N-2-(phenyloxy)ethylamino]-5-hydroxytetralin] | affinity for binding to dopamine D2 receptors (dopamine D2 receptors; in words): high affinity; selectivity for binding to dopamine D2 receptors (dopamine D2 receptors; in words): high affinity and selectivity |
| 170 | 8710 | CCCN(CCOc1ccccc1)C1CCc2c(O)cccc2C1 (single isomer, unassigned; (-)) [Example 30, (-)-5,6,7,8-tetrahydro-6-[(2-phenoxyethyl)propylamino]-1-naphthalenol] | – |
| 813 | 12300 | CCCN(CCOc1ccccc1)C1CCc2ccc(O)cc2C1 (stereo not shown) [Example 39, 5,6,7,8-tetrahydro-6-[(2-phenoxylethyl)-propylamino]-3-naphthalenol] | – |
| 46.8 | 9120 | CCCN(CC(c1ccccc1)c1ccccc1)C1CCc2c(O)cccc2C1 (stereo not shown) [Example 12, 2-[N-n-propyl,N-2,2-diphenylethylamino]-5-hydroxytetralin] | – |
| 316 | 10500 | CCCN(CCOc1cccc(F)c1)C1CCc2c(O)cccc2C1 (stereo not shown) [Example 45, 5,6,7,8-tetrahydro-6-[[2(3-fluorophenoxy)ethyl]propylamino]-1-naphthalenol] | – |
| 79.4 | 1290 | CCCN(CCSc1ccccc1)C1CCc2c(O)cccc2C1 (stereo not shown) [Example 34, 5,6,7,8-tetrahydro-6-[(2-thiophenoxyethyl)propylamino]-1-naphthalenol] | – |
| 1150 | 13500 | CCCN(CCOc1cccc2ccccc12)C1CCc2c(O)cccc2C1 (stereo not shown) [Example 48, 5,6,7,8-tetrahydro-6-[[2-(1-naphthalenyloxy)ethyl]propylamino]-1-naphthalenol hydrochloride] | – |
| 339 | 1380 | CCCN(CCC(c1ccccc1)c1ccccc1)C1CCc2c(O)cccc2C1 (stereo not shown) [Example 14, 2-[N-n-propyl,N-3,3-diphenyipropylamino]-5-hydroxytetralin] | – |
| – | – | CCCN(CCc1cccs1)C1CCc2c(O)cccc2C1 (racemic) [Example N-0437, reference compound] | D2 (pK1) (dopamine D2 receptors): 6.96; dopamine D2 agonist (dopamine D2): potent dopamine D2 agonist |
| – | – | CN1CCc2cccc3c2[C@H]1Cc1ccc(O)c(O)c1-3 [apomorphine] | dopaminergic activity (dopamine receptor): high activity |

— patent publication US5358971A, “Substituted 2-aminotetralins” (Whitby Research, Inc., priority 1993, dated 1994)
